Measured values from PMC4981717, “Lcp1 Is a Phosphotransferase Responsible for Ligating Arabinogalactan to Peptidoglycan in Mycobacterium tuberculosis” (mBio, 2016).
Values joined by “and” are separate entries in the source; they are usually repeats but may differ in a detail not shown here. Identical values can stand only once. “Also recorded” adds a separate entry of the source.

Target: ^MtbLcp1 (Mycobacterium tuberculosis, UniProt P96872)
Assay: Intrinsic tryptophan fluorescence (ITF) ligand binding of linker unit analogues to recombinant ^MtbLcp1
Conditions: for Bmax: ITF saturation binding, change in fluorescence emission at λ = 341 nm; for Kd: ITF, single-site saturation model, 25°C, 0.026 µM ^MtbLcp1, λ = 341 nm, read-out: equilibrium dissociation constant, KD
Experimental: Intrinsic tryptophan fluorescence (ITF) ligand binding experiments of ^MtbLcp1 with saccharide ligands were conducted on a Hitachi F7000 fluorescence spectrophotometer with the temperature thermostatically regulated to 25°C. ^MtbLcp1 was diluted to 0.026 µM with dialysis buffer, and fluorescence spectra were measured at an excitation wavelength of 280 nm and emission wavelength of 300 to 400 nm with an excitation and emission slit width of 5 nm using a 500-µl crystal cuvette. ITF maximum (Femission^max) was recorded at λ = 341 nm, providing a basal Femission coordinate for the collection of subsequent ITF data. Increasing concentrations of ligands representing the linker unit (compounds 1 to 4) were added to the cuvette. The change in fluorescence emission (ΔFemission) was calculated by subtracting Femission (recorded 2 min after each ligand addition) from Femission^max. Changes of background fluorescence observed upon addition of equivalent volumes of dialysis buffer (the solvent in which compounds 1 to 4 were dissolved) were subtracted from the overall change in fluorescence, and the data were then plotted against ligand concentration, [L] (3 independent biological experiments). A plot of ΔFemission at λ = 341 nm versus [L] was fitted to a one-site specific binding equation using GraphPad Prism 5 software: ΔFemission = Fmax × [L]/(KD + [L]).

Chain of ^MtbLcp1 (P96872 entry or part of it): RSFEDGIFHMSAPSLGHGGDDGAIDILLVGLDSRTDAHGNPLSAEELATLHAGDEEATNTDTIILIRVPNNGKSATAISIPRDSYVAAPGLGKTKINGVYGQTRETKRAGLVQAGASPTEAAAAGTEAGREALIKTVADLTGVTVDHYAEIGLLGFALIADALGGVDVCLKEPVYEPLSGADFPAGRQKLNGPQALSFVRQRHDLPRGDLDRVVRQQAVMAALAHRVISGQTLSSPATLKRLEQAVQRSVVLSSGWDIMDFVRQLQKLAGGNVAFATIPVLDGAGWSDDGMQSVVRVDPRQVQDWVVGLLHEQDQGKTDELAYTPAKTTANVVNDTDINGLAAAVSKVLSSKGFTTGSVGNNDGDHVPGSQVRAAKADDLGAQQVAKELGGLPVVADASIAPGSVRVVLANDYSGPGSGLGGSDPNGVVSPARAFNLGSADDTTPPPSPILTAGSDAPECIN

CCCCCCCCOC1OC(C)C(OC2OC(C(O)CO)C(O)C2O)C(O)C1O [compound 4, D-Galf-β(1→4)-L-Rhap]
binding affinity toward ^MtbLcp1 in words (ITF assays, above background fluorescence): no significant binding affinity (above background); also recorded: no recordable affinity | Bmax: 177 and ~ 177.6 | Kd: 97.6 µM and ~97.6 µM

CCCCCCCCO[C@H]1O[C@H](CO)[C@@H](O)[C@H](O[C@@H]2O[C@@H](C)[C@H](O)[C@@H](O)[C@H]2O)[C@H]1NC(C)=O [compound 1, octyl α-L-rhamnopyranosyl-(1→3)-2-acetamido-2-deoxy-α-D-glucopyranoside]
Bmax: 1448 | Kd: 57.7 µM

CCCCCCCCOC1OC(CO)C(O)C(OC2OC(C)C(OC3OC(C(CO)OC4OC(C(O)COC5OC(C(O)CO)C(O)C5O)C(O)C4O)C(O)C3O)C(O)C2O)C1NC(C)=O [compound 3, octyl-β-D-galactofuranosyl-(1→6)-β-D-galactofuranosyl-(1→5)-β-D-galactofuranosyl-(1→4)-α-L-rhamnopyranosyl-(1→3)-2-acetamido-2-deoxy-α-D-glucopyranoside]
Bmax: 1498 | Kd: 20.4 µM | fold decrease in binding affinity (additional Galf residue, versus compound 2): 4 fold

CCCCCCCCOC1OC(CO)C(O)C(OC2OC(C)C(OC3OC(C(CO)OC4OC(C(O)CO)C(O)C4O)C(O)C3O)C(O)C2O)C1NC(C)=O [compound 2, octyl-β-D-galactofuranosyl-(1→5)-β-D-galactofuranosyl-(1→4)-α-L-rhamnopyranosyl-(1→3)-2-acetamido-2-deoxy-α-D-glucopyranoside]
Bmax: 1585 | Kd: 5.13 µM | fold increase in affinity (tetrasaccharide ligand versus linker unit disaccharide (compound 1)): ~ 10 fold
